Experimental data taken from ChEMBL document CHEMBL1255486, “Effect of vicriviroc on the QT/corrected QT interval and central nervous system in healthy subjects” (Antimicrob Agents Chemother, 2010).

How the values were obtained:
[1] = Tmax in healthy human at 200 mg/kg, po once daily for 7 days; type: ADME, organism-based; parameters: dose 200 mg/kg, route oral; conditions: in vivo
Homo sapiens [2] = test: Toxicity in healthy human assessed as headache at 300 […], po administered as single dose; type: organism-based; parameters: route oral; conditions: in vivo
Homo sapiens [3] = test: Toxicity in healthy human assessed as puncture site pain at 250 […], po once daily for 7 days; type: organism-based; parameters: route oral; conditions: in vivo, 168 h
Homo sapiens [4] = test: Toxicity in healthy human assessed as fatigue at 250 […], po once daily for 7 days; type: organism-based; parameters: route oral; conditions: in vivo, 168 h
[5] = Tmax in healthy human at 250 mg/kg, po once daily for 7 days; type: ADME, organism-based; parameters: dose 250 mg/kg, route oral; conditions: in vivo
Homo sapiens [6] = test: Toxicity in healthy human assessed as increase in blood […] at 250 […], po once daily for 7 days; type: organism-based; parameters: route oral; conditions: in vivo, 168 h
Homo sapiens [7] = test: Toxicity in healthy human assessed as increase in blood […] at 300 […], po once daily for 7 days; type: organism-based; parameters: route oral; conditions: in vivo, 168 h
Homo sapiens [8] = test: Cardiotoxicity in healthy human assessed as change in corrected QT interval at 30 mg/kg, po after 10 days by ECG; type: toxicity, organism-based; parameters: dose 30 mg/kg, route oral; conditions: in vivo, 240 h
Homo sapiens [9] = test: Toxicity in healthy human assessed as headache at 250 […], po once daily for 7 days; type: organism-based; parameters: route oral; conditions: in vivo, 168 h
[10] = Cmax in healthy human at 200 mg/kg, po once daily for 7 days measured after 1 day of last dose; type: ADME, organism-based; parameters: dose 200 mg/kg, route oral; conditions: in vivo
[11] = Cmax in healthy human at 250 mg/kg, po once daily for 7 days; type: ADME, organism-based; parameters: dose 250 mg/kg, route oral; conditions: in vivo
[12] = Tmax in healthy human at 250 mg/kg, po administered as single dose after 1 day; type: ADME, organism-based; parameters: dose 250 mg/kg, route oral; conditions: in vivo
[13] = AUC (0 to 24 hrs) in healthy human at 150 […], po after 10 days; type: ADME, organism-based; parameters: time < 24 hr, dose 150 mg/kg, route oral; conditions: plasma
[14] = Tmax in healthy human at 150 […], po once daily for 7 days measured after 1 day of last dose; type: ADME, organism-based; parameters: dose 150 mg/kg, route oral; conditions: in vivo
[15] = Tmax in healthy human at 150 […], po after 10 days; type: ADME, organism-based; parameters: dose 150 mg/kg, route oral; conditions: in vivo
[16] = Cmax in healthy human at 200 mg/kg, po once daily for 7 days; type: ADME, organism-based; parameters: dose 200 mg/kg, route oral; conditions: in vivo
Homo sapiens [17] = test: Toxicity in healthy human assessed as headache at 200 […], po administered as single dose; type: organism-based; parameters: route oral; conditions: in vivo
Homo sapiens [18] = test: Toxicity in healthy human assessed as back pain at 250 mg/kg, po once daily for 7 days; type: organism-based; parameters: dose 250 mg/kg, route oral; conditions: in vivo, 168 h
Homo sapiens [19] = test: Toxicity in healthy human assessed as nausea at 250 […], po administered as single dose; type: organism-based; parameters: route oral; conditions: in vivo
[20] = AUC (0 to 24 hrs) in healthy human at 250 mg/kg, po once daily for 7 days measured after 1 day of last dose; type: ADME, organism-based; parameters: time < 24 hr, dose 250 mg/kg, route oral; conditions: plasma
Homo sapiens [21] = test: Toxicity in healthy human assessed as fatigue at 300 […], po administered as single dose; type: organism-based; parameters: route oral; conditions: in vivo
[22] = Cmax in healthy human at 200 mg/kg, po administered as single dose after 1 day; type: ADME, organism-based; parameters: dose 200 mg/kg, route oral; conditions: in vivo
[23] = Tmax in healthy human at 300 mg/kg, po administered as single dose after 1 day; type: ADME, organism-based; parameters: dose 300 mg/kg, route oral; conditions: in vivo
[24] = Cmax in healthy human at 150 […], po once daily for 7 days measured after 1 day of last dose; type: ADME, organism-based; parameters: dose 150 mg/kg, route oral; conditions: in vivo
[25] = AUC (0 to 24 hrs) in healthy human at 250 mg/kg, po once daily for 7 days; type: ADME, organism-based; parameters: time < 24 hr, dose 250 mg/kg, route oral; conditions: plasma
[26] = AUC (0 to 24 hrs) in healthy human at 30 mg/kg, po after 10 days; type: ADME, organism-based; parameters: time < 24 hr, dose 30 mg/kg, route oral; conditions: plasma
[27] = AUC (0 to 24 hrs) in healthy human at 150 […], po once daily for 7 days; type: ADME, organism-based; parameters: time < 24 hr, dose 150 mg/kg, route oral; conditions: plasma
Homo sapiens [28] = test: Toxicity in healthy human assessed as back pain at 300 mg/kg, po administered as single dose; type: organism-based; parameters: dose 300 mg/kg, route oral; conditions: in vivo
[29] = Cmax in healthy human at 250 mg/kg, po once daily for 7 days measured after 1 day of last dose; type: ADME, organism-based; parameters: dose 250 mg/kg, route oral; conditions: in vivo
[30] = Tmax in healthy human at 250 mg/kg, po once daily for 7 days measured after 1 day of last dose; type: ADME, organism-based; parameters: dose 250 mg/kg, route oral; conditions: in vivo
Homo sapiens [31] = test: Toxicity in healthy human assessed as EEG abnormality at 250 mg/kg, po once daily for 7 days; type: organism-based; parameters: dose 250 mg/kg, route oral; conditions: in vivo, 168 h
Homo sapiens [32] = test: Toxicity in healthy human assessed as EEG abnormality at 150 […], po once daily for 7 days; type: organism-based; parameters: dose 150 mg/kg, route oral; conditions: in vivo, 168 h
Homo sapiens [33] = test: Toxicity in healthy human assessed as pollakiuria at 200 […], po once daily for 7 days; type: organism-based; parameters: route oral; conditions: in vivo, 168 h
[34] = AUC (0 to 24 hrs) in healthy human at 150 […], po once daily for 7 days measured after 1 day of last dose; type: ADME, organism-based; parameters: time < 24 hr, dose 150 mg/kg, route oral; conditions: plasma
[35] = Cmax in healthy human at 300 mg/kg, po administered as single dose after 1 day; type: ADME, organism-based; parameters: dose 300 mg/kg, route oral; conditions: in vivo

Tmax [1]: 2 h
Tmax [5]: 2 h
Cmax [10]: 838 ng/mL
Cmax [11]: 1040 ng/mL
Tmax [12]: 2 h
AUC at 24 h [13]: 32200 ng·h/mL
Tmax [14]: 1.75 h
Tmax [15]: 1.5 h
Cmax [16]: 949 ng/mL
AUC at 24 h [20]: 5050 ng·h/mL
Cmax [22]: 731 ng/mL
Tmax [23]: 2.9 h
Cmax [24]: 474 ng/mL
AUC at 24 h [25]: 8750 ng·h/mL
AUC at 24 h [26]: 6670 ng·h/mL
AUC at 24 h [27]: 6060 ng·h/mL
Cmax [29]: 791 ng/mL
Tmax [30]: 1.5 h
AUC at 24 h [34]: 3260 ng·h/mL
Cmax [35]: 1130 ng/mL
Structure (SMILES): COC[C@@H](c1ccc(C(F)(F)F)cc1)N1CCN(C2(C)CCN(C(=O)c3c(C)ncnc3C)CC2)C[C@@H]1C [VICRIVIROC]
Activity (Homo sapiens [2]): 13%
Activity (Homo sapiens [3]): 17%
Activity (Homo sapiens [4]): 0%
Activity (Homo sapiens [6]): 10%
Activity (Homo sapiens [7]): 10%
Activity (Homo sapiens [8]): Non-toxic
Activity (Homo sapiens [9]): 25%
Activity (Homo sapiens [17]): 0%
Activity (Homo sapiens [18]): 20%
Activity (Homo sapiens [19]): 0%
Activity (Homo sapiens [21]): 0%
Activity (Homo sapiens [28]): 20%
Activity (Homo sapiens [31]): 38%
Activity (Homo sapiens [32]): 0%
Activity (Homo sapiens [33]): 13%
